Test results: patent publication US20110177026A1 (priority 2005, published 2011)
Where two headings read alike, the source gives them in different places.

Assays:
Format in all cases: cell-based
[1] = tested on: BVDV cytopathic strain NADL
[2] = tested on: Vesicular stomatitis virus (VSV) Indiana serotype
BVDV strain NADL = test: microbe, parasite or virus in culture
[3] = VSV-infected cells at MOI=0.01, concentration of 1 mM
[4] = cells infected with VSV at MOI>1

Row | Compound | antiviral activity [1] | antiviral activity [2, 3] | antiviral activity [2, 4] | inhibition of BVDV replication (BVDV strain NADL) | EC50 (BVDV strain NADL; Bovine viral diarrhea virus isolates and strains, MDBK, read-out: Dm)
1 | O[C@H]1[C@H](O)[C@@H](O)CN2CC[C@H](O)[C@H]12 [CTS, Castanospermine] | exhibited antiviral activity | exhibited antiviral activity | none |  | 
2 | CC1OC(OC2C(CO)OC(OC3C(CO)OC(O)C(O)C3O)C(O)C2O)C(O)C(O)C1NC1C=C(CO)C(O)C(O)C1O [acarbose, O-4,6-dideoxy-4-[[(1S,4R,5S,6S)-4,5,6-trihydroxy-3-(hydroxymethyl)-2-cyclohexen-1-yl]amino]-α-D-glucopyranosyl-(1→4)-O-α-D-glucopyranosyl-(1→4)-D-glucose] | only the positive control CTS exhibited antiviral activity | exhibited antiviral activity | none | potent antiviral agents that inhibit BVDV replication | 
3 | OCCN1CC(O)C(O)C(O)C1CO (stereo not drawn) [miglitol, 3,4,5-piperidinetriol, 1-(2-hydroxyethyl)-2-(hydroxymethyl)-, [2R-(2α, 3β,4α,5β)]] | only the positive control CTS exhibited antiviral activity | exhibited antiviral activity | none | potent antiviral agents that inhibit BVDV replication | 221 µM
